Test results reported in ChEMBL document CHEMBL4418281, “Carboxamide inhibitors” (2017).

Legend:
[1] = biological target: E3 ubiquitin-protein ligase SMURF2 (Homo sapiens, UniProt Q9HAU4); test: Inhibition of SMURF2 (unknown origin) in presence of E1/E2/Ub mix measured after 45 mins by europium-labeled streptavidin based TR-FRET assay
[2] = biological target: E3 ubiquitin-protein ligase SMURF1 (Homo sapiens, UniProt Q9HCE7); test: Inhibition of SMURF1 (unknown origin) in presence of E1/E2/Ub mix measured after 45 mins by europium-labeled streptavidin based TR-FRET assay
Chain of E3 ubiquitin-protein ligase SMURF1 (Q9HCE7 whole entry): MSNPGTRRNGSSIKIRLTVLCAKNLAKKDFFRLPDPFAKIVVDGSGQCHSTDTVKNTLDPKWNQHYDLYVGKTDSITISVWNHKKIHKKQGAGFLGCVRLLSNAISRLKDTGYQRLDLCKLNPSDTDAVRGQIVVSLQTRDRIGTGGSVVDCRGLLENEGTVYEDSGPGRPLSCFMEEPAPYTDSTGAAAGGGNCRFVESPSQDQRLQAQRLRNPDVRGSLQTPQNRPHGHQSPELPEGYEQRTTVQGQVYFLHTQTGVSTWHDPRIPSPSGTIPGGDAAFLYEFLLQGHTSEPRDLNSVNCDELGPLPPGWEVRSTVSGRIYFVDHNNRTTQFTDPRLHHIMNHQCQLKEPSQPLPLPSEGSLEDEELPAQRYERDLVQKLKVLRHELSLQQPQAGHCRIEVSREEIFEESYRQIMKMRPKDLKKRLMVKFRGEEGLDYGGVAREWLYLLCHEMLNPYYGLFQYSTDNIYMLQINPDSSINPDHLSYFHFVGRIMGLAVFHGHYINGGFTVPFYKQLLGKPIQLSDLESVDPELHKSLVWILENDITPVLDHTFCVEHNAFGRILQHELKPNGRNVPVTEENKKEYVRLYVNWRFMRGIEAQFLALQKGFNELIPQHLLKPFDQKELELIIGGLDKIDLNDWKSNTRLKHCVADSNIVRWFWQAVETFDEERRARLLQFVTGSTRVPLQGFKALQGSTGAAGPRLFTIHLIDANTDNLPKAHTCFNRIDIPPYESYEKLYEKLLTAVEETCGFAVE

Chain of E3 ubiquitin-protein ligase SMURF2 (Q9HAU4 whole entry): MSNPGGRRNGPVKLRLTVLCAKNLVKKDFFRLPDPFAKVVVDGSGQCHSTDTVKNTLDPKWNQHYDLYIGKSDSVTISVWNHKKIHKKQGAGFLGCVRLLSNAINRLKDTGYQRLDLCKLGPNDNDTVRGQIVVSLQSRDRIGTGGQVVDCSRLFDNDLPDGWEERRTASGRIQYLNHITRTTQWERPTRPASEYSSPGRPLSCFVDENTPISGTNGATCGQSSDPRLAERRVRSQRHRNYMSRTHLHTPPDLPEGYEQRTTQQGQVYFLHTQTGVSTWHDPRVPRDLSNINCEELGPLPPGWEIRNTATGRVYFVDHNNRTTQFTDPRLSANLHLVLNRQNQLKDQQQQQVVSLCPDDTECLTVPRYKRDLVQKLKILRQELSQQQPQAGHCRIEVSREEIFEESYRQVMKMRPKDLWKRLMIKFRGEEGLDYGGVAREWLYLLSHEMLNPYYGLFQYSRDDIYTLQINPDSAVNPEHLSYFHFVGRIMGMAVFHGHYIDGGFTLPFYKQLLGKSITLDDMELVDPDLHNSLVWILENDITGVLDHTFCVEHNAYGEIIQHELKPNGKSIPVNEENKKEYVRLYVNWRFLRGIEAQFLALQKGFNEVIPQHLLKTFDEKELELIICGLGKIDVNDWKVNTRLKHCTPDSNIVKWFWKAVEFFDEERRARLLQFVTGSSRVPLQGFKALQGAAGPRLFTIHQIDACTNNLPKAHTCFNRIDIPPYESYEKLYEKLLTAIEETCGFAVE

Row | Structure (SMILES) | IC50 [1] [µM] | IC50 [2] [µM]
1 | Cc1c(NC(=O)c2noc3c2CCCc2cc(OC(F)(F)F)ccc2-3)c(=O)n(Cc2ccccc2F)n1C | 20 | –
2 | Cc1c(NC(=O)c2noc3c2CCCc2cc(CC(C)C)ccc2-3)c(=O)n(-c2ccccc2Cl)n1C | 0.74 | 0.0225
3 | COc1ccc2c(c1)CCCc1c(C(=O)Nc3c(C)n(C)n(Cc4ccc(F)cc4)c3=O)noc1-2 | 20 | –
4 | Cc1c(NC(=O)c2noc3c2CCCc2cc(OC(F)(F)F)ccc2-3)c(=O)n(Cc2ccc(F)cc2)n1C | 20 | –
